Reference: PubChem BioAssay AID248 (DTP/NCI, 2004)
Inconclusive results and toxic doses are left out. Cut-off read from the data, not from the text of the source: active = T/C of 150% or more; inactive = T/C below 125%.

Test system: L1210 leukemia ip in BDF1 mice, survival T/C
Assay: NCI In Vivo Anticancer Drug Screen. Data for tumor model L1210 Leukemia (intraperitoneal) in B6D2F1 (BDF1) mice
Conditions: endpoint: mean survival time, higher = longer survival
In short: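 Mice bearing the transplanted tumor received compound or vehicle. Survival of the treated group was divided by that of the vehicle-treated control group to give the ratio.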

[1] = dose: 12.5 mg/kg/injection, schedule: Q04DX003 (ip), vehicle: Klucel (hydroxypropylcellulose) (HPC)
[2] = dose: 25.0 mg/kg/injection, schedule: Q04DX003 (ip), vehicle: Klucel (hydroxypropylcellulose) (HPC)
[3] = dose: 50.0 mg/kg/injection, schedule: Q04DX003 (ip), vehicle: Klucel (hydroxypropylcellulose) (HPC)
[4] = dose: 100.0 mg/kg/injection, schedule: Q01DX009 (ip), vehicle: saline
[5] = dose: 200.0 mg/kg/injection, schedule: Q01DX009 (ip), vehicle: saline
[6] = dose: 400.0 mg/kg/injection, schedule: Q01DX009 (ip), vehicle: saline
[7] = dose: 100.0 mg/kg/injection, schedule: Q01DX009 (ip), vehicle: Klucel (hydroxypropylcellulose) (HPC)
[8] = dose: 100.0 mg/kg/injection, schedule: Q04DX003 (ip), vehicle: Klucel (hydroxypropylcellulose) (HPC)
[9] = dose: 200.0 mg/kg/injection, schedule: Q01DX009 (ip), vehicle: Klucel (hydroxypropylcellulose) (HPC)
[10] = dose: 200.0 mg/kg/injection, schedule: Q04DX003 (ip), vehicle: Klucel (hydroxypropylcellulose) (HPC)
[11] = dose: 400.0 mg/kg/injection, schedule: Q01DX009 (ip), vehicle: Klucel (hydroxypropylcellulose) (HPC)
[12] = dose: 100.0 mg/kg/injection, schedule: Q01DX001 (ip), vehicle: saline
[13] = dose: 100.0 mg/kg/injection, schedule: Q04DX003 (ip), vehicle: saline with Tween-80
[14] = dose: 100.0 mg/kg/injection, schedule: Q01DX009 (ip), vehicle: saline with Tween-80

Measured: T/C

O=C(Nc1ccc(Cl)cc1)N1CC1
inactive: [1] 92 % of control | [2] 94 % of control | [3] 98 % of control

NC(Cc1cc(O)c(O)c(S(=O)(=O)c2ccccc2)c1)C(=O)O (stereo not given)
inactive: dose: 87.5 mg/kg/injection, schedule: Q01DX009 (ip), vehicle: saline 98 % of control | dose: 175.0 mg/kg/injection, schedule: Q01DX009 (ip), vehicle: saline 96 % of control | dose: 350.0 mg/kg/injection, schedule: Q01DX009 (ip), vehicle: saline 107 % of control

O=C1NC(=O)C2C3CCC(C3)C12 (stereo not given)
inactive: dose: 6.25 mg/kg/injection, schedule: Q04DX003 (ip), vehicle: saline 105 % of control | dose: 12.5 mg/kg/injection, schedule: Q04DX003 (ip), vehicle: saline 102 % of control | dose: 25.0 mg/kg/injection, schedule: Q04DX003 (ip), vehicle: saline 102 % of control

CC1(C)Cc2cc3cc(Cl)ccc3nc2-c2ccccc21
inactive: [4] 102 % of control | dose: 100.0 mg/kg/injection, schedule: Q04DX003 (ip), vehicle: acetone 98 % of control | [5] 89 % of control | dose: 200.0 mg/kg/injection, schedule: Q04DX003 (ip), vehicle: acetone 104 % of control | [6] 100 % of control | dose: 400.0 mg/kg/injection, schedule: Q04DX003 (ip), vehicle: acetone 94 % of control

Cc1cc(C)c(-c2cc(O)c(C)cc2O)c(C)c1
inactive: dose: 25.0 mg/kg/injection, schedule: Q01DX009 (ip), vehicle: other 103 % of control | dose: 50.0 mg/kg/injection, schedule: Q01DX009 (ip), vehicle: other 99 % of control | dose: 100.0 mg/kg/injection, schedule: Q01DX009 (ip), vehicle: other 101 % of control | dose: 200.0 mg/kg/injection, schedule: Q01DX009 (ip), vehicle: other 97 % of control | dose: 400.0 mg/kg/injection, schedule: Q01DX009 (ip), vehicle: other 100 % of control

CCCNC(c1ccccc1)=[N+]1C(C)CCCC1C (stereo not given)
inactive: dose: 12.5 mg/kg/injection, schedule: Q04DX002 (ip), vehicle: saline 101 % of control | dose: 25.0 mg/kg/injection, schedule: Q04DX002 (ip), vehicle: saline 109 % of control

O=C(C(=O)c1cc(Br)ccc1O)c1cc(Br)ccc1O
inactive: [7] 96 % of control | [8] 93 % of control | [9] 100 % of control | [10] 97 % of control | [11] 94 % of control | dose: 400.0 mg/kg/injection, schedule: Q04DX003 (ip), vehicle: Klucel (hydroxypropylcellulose) (HPC) 95 % of control

[Cu+2].[NH-]CC(=O)O.[NH-]CC(=O)O
inactive: dose: 5.0 mg/kg/injection, schedule: Q04DX003 (ip), vehicle: saline 103 % of control | dose: 10.0 mg/kg/injection, schedule: Q04DX003 (ip), vehicle: saline 99 % of control | dose: 20.0 mg/kg/injection, schedule: Q04DX003 (ip), vehicle: saline 94 % of control

CC1=C(N2CC2)C(=O)c2ccccc2C1=O
inactive: [1] 98 % of control | [2] 102 % of control | [3] 102 % of control | dose: 100.0 mg/kg/injection, schedule: Q01DX001 (ip), vehicle: Klucel (hydroxypropylcellulose) (HPC) 102 % of control | [8] 102 % of control

CCCCC(CC)CC1C(=O)NC(=S)NC1=O (stereo not given)
inactive: dose: 75.0 mg/kg/injection, schedule: Q01DX001 (ip), vehicle: saline 97 % of control | dose: 150.0 mg/kg/injection, schedule: Q01DX001 (ip), vehicle: saline 98 % of control

C=CCC(O)C=C (stereo not given)
inactive: dose: 50.0 mg/kg/injection, schedule: Q01DX001 (ip), vehicle: carboxymethylcellulose (CMC) 89 % of control | dose: 100.0 mg/kg/injection, schedule: Q01DX001 (ip), vehicle: carboxymethylcellulose (CMC) 92 % of control

O=C(Nc1ccc(C(=O)Nc2ccc(C3=NCCCN3)cc2)cc1)Nc1ccc(C2=NCCCN2)cc1
inactive: dose: 0.94 mg/kg/injection, schedule: Q01DX Z (ip), vehicle: saline 103 % of control | dose: 1.88 mg/kg/injection, schedule: Q01DX Z (ip), vehicle: saline 117 % of control | dose: 18.8 mg/kg/injection, schedule: Q01DX004 (oral), vehicle: saline 94 % of control | dose: 37.5 mg/kg/injection, schedule: Q01DX009 (oral), vehicle: saline 91 % of control | dose: 75.0 mg/kg/injection, schedule: Q01DX009 (oral), vehicle: saline 93 % of control | dose: 150.0 mg/kg/injection, schedule: Q01DX004 (oral), vehicle: saline 93 % of control

Cn1ncc2c(NCc3ccccc3)ncnc21
inactive: [12] 97 % of control | dose: 200.0 mg/kg/injection, schedule: Q01DX001 (ip), vehicle: saline 110 % of control

NC(=O)Cn1cnc2c(Cl)ncnc21
inactive: [13] 104 % of control | dose: 200.0 mg/kg/injection, schedule: Q04DX003 (ip), vehicle: saline with Tween-80 102 % of control | dose: 400.0 mg/kg/injection, schedule: Q04DX003 (ip), vehicle: saline with Tween-80 120 % of control

O=C(/C=C/c1cccc2ccccc12)c1cccc([N+](=O)[O-])c1
inactive: dose: 100.0 mg/kg/injection, schedule: Q04DX002 (ip), vehicle: gum acacia 88 % of control | dose: 200.0 mg/kg/injection, schedule: Q04DX002 (ip), vehicle: gum acacia 92 % of control | dose: 400.0 mg/kg/injection, schedule: Q04DX002 (ip), vehicle: gum acacia 96 % of control

Clc1ccc(CN2CCCN(C3CCCCC3)C2C2CCC=CO2)cc1 (stereo not given)
inactive: [12] 96 % of control

O=C(Nc1ccccc1)OCC#CCOC(=O)Nc1ccccc1
inactive: [7] 97 % of control | [9] 90 % of control | [11] 100 % of control

COC(CN(C)CC(OC)OC)OC
inactive: [4] 107 % of control | dose: 100.0 mg/kg/injection, schedule: Q04DX003 (ip), vehicle: saline 97 % of control | [5] 96 % of control | dose: 200.0 mg/kg/injection, schedule: Q04DX003 (ip), vehicle: saline 112 % of control | [6] 98 % of control | dose: 400.0 mg/kg/injection, schedule: Q04DX003 (ip), vehicle: saline 105 % of control

C1=C[N]2c3c4c(ccc3=C1)=CC=C[N]4[Ga]2[c]1ccccc1
inactive: dose: 25.0 mg/kg/injection, schedule: Q04DX003 (ip), vehicle: saline with Tween-80 88 % of control | dose: 50.0 mg/kg/injection, schedule: Q04DX003 (ip), vehicle: saline with Tween-80 97 % of control | [13] 101 % of control

CC(C)=CCNc1ncnc2nc[nH]c12
inactive: dose: 5.0 mg/kg/injection, schedule: Q01DX001 (ip), vehicle: saline 107 % of control | dose: 10.0 mg/kg/injection, schedule: Q01DX001 (ip), vehicle: saline 95 % of control | dose: 10.0 mg/kg/injection, schedule: Q01DX009 (ip), vehicle: saline with Tween-80 104 % of control | dose: 20.0 mg/kg/injection, schedule: Q01DX001 (ip), vehicle: saline 101 % of control | dose: 20.0 mg/kg/injection, schedule: Q01DX009 (ip), vehicle: saline with Tween-80 103 % of control | dose: 20.0 mg/kg/injection, schedule: Q04DX003 (ip), vehicle: saline with Tween-80 100 % of control | dose: 40.0 mg/kg/injection, schedule: Q01DX001 (ip), vehicle: saline 101 % of control | dose: 40.0 mg/kg/injection, schedule: Q01DX009 (ip), vehicle: saline with Tween-80 98 % of control

O=C(CCC(=O)OCCBr)OCCBr
inactive: [8] 110 % of control | [10] 102 % of control

COc1ccccc1OCC(C)=O
inactive: [14] 95 % of control | dose: 200.0 mg/kg/injection, schedule: Q01DX009 (ip), vehicle: saline with Tween-80 105 % of control | dose: 400.0 mg/kg/injection, schedule: Q01DX009 (ip), vehicle: saline with Tween-80 105 % of control

O=C(OCCO)c1cc(OCCO)nc(Cl)n1
inactive: dose: 50.0 mg/kg/injection, schedule: Q01DX009 (ip), vehicle: Klucel (hydroxypropylcellulose) (HPC) 100 % of control | [7] 100 % of control | [9] 89 % of control

CC(C)(CBr)COS(=O)(=O)c1ccc(Br)cc1
inactive: dose: 50.0 mg/kg/injection, schedule: Q01DX009 (ip), vehicle: saline with Tween-80 89 % of control | [14] 91 % of control
